Experimental data taken from US10077261B2, “Imidazolin-5-one derivative useful as FASN inhibitors for the treatment of cancer” (Janssen Pharmaceutica NV, priority 2012, dated 2018).

Target: T1, hFASN enzyme (full length) (Homo sapiens, UniProt P49327)
T1 construct: 10 μL hFASN enzyme (full length, 300 ng, purified in house); made in house
Test: Fatty Acid Synthase (FASN) inhibition scintillation proximity assay
Type: biochemical
Details: for inhibition at 10 µM: read-out: Human FASN % inhibition @ 10 μM, 10 μM test compound; for IC50: read-out: Human FASN pIC50 (converted)
In short: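 Proximity read-out: hydrophobic ^3H-palmitate formed from ^3H-acetyl-CoA and malonyl-CoA binds streptavidin imaging beads, imaged at 610±20 nm at least 24 h after stopping. Enzyme was in-house purified full-length hFASN, 300 ng, in pH 7.5 phosphate/DTT buffer; compound series 30 μM down to 0.01 μM, normalized to controls, 4-parameter fit.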

T1 sequence (P49327 whole entry): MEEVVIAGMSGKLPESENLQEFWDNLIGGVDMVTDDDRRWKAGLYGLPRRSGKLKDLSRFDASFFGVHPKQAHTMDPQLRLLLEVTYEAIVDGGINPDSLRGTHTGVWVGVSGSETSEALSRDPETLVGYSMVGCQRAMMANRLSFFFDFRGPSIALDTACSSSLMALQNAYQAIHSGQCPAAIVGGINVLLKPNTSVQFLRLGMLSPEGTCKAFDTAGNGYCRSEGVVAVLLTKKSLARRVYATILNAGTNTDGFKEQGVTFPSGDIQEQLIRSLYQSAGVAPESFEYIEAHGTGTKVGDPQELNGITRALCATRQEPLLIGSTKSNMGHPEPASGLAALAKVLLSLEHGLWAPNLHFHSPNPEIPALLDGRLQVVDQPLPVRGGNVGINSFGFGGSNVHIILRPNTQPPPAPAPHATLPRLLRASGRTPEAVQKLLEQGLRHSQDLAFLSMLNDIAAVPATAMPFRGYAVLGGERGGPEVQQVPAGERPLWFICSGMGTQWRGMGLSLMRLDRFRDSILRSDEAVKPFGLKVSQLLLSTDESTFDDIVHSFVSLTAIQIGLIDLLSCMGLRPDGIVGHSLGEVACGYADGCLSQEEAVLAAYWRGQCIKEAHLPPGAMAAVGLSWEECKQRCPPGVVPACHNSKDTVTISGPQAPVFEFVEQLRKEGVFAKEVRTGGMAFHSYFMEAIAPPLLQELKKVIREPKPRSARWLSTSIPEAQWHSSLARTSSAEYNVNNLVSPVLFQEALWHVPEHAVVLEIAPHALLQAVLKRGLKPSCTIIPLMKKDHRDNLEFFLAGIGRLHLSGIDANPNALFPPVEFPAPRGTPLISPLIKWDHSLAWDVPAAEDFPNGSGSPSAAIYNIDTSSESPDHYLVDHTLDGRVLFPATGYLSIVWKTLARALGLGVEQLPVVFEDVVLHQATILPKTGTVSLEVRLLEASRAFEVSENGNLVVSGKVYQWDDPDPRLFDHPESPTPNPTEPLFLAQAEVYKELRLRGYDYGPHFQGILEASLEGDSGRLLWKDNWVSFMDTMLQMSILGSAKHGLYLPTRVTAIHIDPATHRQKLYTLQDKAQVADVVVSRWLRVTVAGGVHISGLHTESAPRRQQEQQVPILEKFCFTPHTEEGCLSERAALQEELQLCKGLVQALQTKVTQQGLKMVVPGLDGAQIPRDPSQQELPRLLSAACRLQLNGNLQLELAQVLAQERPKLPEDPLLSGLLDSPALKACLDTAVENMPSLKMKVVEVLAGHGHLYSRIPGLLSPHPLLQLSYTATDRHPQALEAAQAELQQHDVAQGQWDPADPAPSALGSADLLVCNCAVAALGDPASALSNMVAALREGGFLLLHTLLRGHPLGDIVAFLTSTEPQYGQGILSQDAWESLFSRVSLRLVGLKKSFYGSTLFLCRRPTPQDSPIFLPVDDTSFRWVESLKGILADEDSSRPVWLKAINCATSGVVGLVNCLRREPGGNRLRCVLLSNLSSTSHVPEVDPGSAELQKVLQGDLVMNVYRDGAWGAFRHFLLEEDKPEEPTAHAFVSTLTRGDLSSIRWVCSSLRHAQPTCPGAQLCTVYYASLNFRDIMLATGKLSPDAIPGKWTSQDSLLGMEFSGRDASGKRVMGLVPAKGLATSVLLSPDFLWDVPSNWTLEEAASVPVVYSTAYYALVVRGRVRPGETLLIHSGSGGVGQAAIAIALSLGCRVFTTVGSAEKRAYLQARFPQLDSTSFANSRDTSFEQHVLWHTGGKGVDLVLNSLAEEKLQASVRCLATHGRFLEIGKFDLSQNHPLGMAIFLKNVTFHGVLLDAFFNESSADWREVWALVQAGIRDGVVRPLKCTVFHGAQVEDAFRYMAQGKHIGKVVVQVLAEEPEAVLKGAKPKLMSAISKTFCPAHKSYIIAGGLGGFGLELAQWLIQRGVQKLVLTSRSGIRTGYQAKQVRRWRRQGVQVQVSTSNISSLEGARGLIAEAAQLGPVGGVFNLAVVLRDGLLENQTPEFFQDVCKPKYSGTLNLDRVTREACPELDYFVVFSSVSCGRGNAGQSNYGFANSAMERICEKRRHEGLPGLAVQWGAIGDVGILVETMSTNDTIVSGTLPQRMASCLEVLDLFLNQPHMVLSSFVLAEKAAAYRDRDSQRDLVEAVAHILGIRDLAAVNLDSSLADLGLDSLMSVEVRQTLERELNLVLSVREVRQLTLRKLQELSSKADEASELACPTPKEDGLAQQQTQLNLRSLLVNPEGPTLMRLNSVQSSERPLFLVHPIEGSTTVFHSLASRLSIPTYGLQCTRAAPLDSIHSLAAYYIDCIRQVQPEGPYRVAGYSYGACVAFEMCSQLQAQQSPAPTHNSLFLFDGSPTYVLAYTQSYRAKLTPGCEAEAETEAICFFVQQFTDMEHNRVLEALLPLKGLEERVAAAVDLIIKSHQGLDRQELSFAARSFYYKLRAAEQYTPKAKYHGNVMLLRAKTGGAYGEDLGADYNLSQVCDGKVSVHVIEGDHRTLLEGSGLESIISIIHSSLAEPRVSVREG

inhibition at 10 µM | IC50 | Human FASN % inhibition @ 10 μM (10 μM test compound, 10 µM) | Human FASN pIC50 (hFASN enzyme, full length, "~" means standard error of the pIC50 is larger than 0.5) | SMILES
105% | 0.302 µM | – | – | CC(=O)N1CCC2(CC1)N=C(c1ccc(-c3ccc4[nH]ncc4c3)cc1)N(C[C@@H]1CCN(C(=O)C3CC3)C1)C2=O [compound 148, 8-Acetyl-3-{[(3R)-1-(cyclopropylcarbonyl)pyrrolidin-3-yl]methyl}-2-[4-(1H-indazol-5-yl)phenyl]-1,3,8-triazaspiro[4.5]dec-1-en-4-one]
76% | 1.86 µM | – | – | Cn1ncc2cc(-c3ccc(C4=NC5(CCOCC5)C(=O)N4CC4CN(C(=O)[C@H]5CCCO5)C4)cc3)ccc21 [compound 708, 2-[4-(1-Methyl-1H-indazol-5-yl)phenyl]-3-({1-[(2R)-tetrahydro-furan-2-ylcarbonyl]azetidin-3-yl}methyl)-8-oxa-1,3-diazaspiro[4.5]dec-1-en-4-one]
123% | 0.123 µM | – | – | O=C(C1CC1)N1CCC2(CC1)N=C(c1ccc(-c3ccc4occc4c3)cc1)N(C[C@@H]1CCN(C(=O)C3CC3)C1)C2=O [compound 152, 2-[4-(1-Benzofuran-5-yl)phenyl]-8-(cyclopropylcarbonyl)-3-{[(3R)-1-(cyclopropylcarbonyl)pyrrolidin-3-yl]methyl}-1,3,8-triazaspiro[4.5]dec-1-en-4-one]
72% | 1.7 µM | – | – | Cn1cc(-c2ccc(-c3ccc(C4=NC5(CCOCC5)C(=O)N4CC4CN(C(=O)[C@H]5CCCO5)C4)cc3)cc2)cn1 [compound 696, 2-[4′-(1-Mehtyl-1H-pyrazol-4-yl)biphenyl-4-yl]-3-({1-[(2R)-tetrahydro-furan-2-ylcarbonyl]azetidin-3-yl}methyl)-8-oxa-1,3-diazaspiro[4.5]dec-1-en-4-one]
59% | ~6.76 µM | – | – | Cn1cc(-c2ccc(-c3ccc(C4=NC5(CCOC5)C(=O)N4CC4CN(C(=O)N5CCCC5)C4)cc3)cc2)cn1 (stereo not drawn) [compound 713, 2-[4′-(1-Methyl-1H-pyrazol-4-yl)biphenyl-4-yl]-3-{[1-(pyrrolidin-1-ylcarbonyl)azetidin-3-yl]methyl}-7-oxa-1,3-diazaspiro[4.4]non-1-en-4-one]
60% | 5.01 µM | – | – | Cc1cc2cc(-c3ccc(C4=NC5(CC5)C(=O)N4CC4CN(C(=O)C5CC5)C4)cc3C)ccc2s1 [compound 446, 6-{[1-(Cyclopropylcarbonyl)azetidin-3-yl]methyl}-5-[3-methyl-4-(2-methyl-1-benzothiophen-5-yl)phenyl]-4,6-diazaspiro[2.4]hept-4-en-7-one]
35% | > 10 µM | – | – | CC(C)n1cc2cc(-c3ccc(C4=NC5(CC5)C(=O)N4C[C@@H]4CCN(C(=O)C5CC5)C4)cc3)ccc2n1 [compound 811, (R)-6-((1-(cyclopropanecarbonyl)pyrrolidin-3-yl)methyl)-5-(4-(2-isopropyl-2H-indazol-5-yl)phenyl)-4,6-diazaspiro[2.4]hept-4-en-7-one]
8% | > 10 µM | – | – | COC(=O)N1CC2(C1)N=C(c1ccc(-c3ccc4occc4c3)cc1)N(C[C@@H]1CCN(S(C)(=O)=O)C1)C2=O [compound 956, (S)-methyl 6-(4-(benzofuran-5-yl)phenyl)-7-((1-(methylsulfonyl)pyrrolidin-3-yl)methyl)-8-oxo-2,5,7-triazaspiro[3.4]oct-5-ene-2-carboxylate]
35% | > 10 µM | – | – | O=C(c1nccs1)N1CC[C@@H](CN2C(=O)C3(CCOC3)N=C2c2ccc(-c3ccc4cccnc4c3)cc2)C1 (stereo partly drawn) [compound 920, 2-(4-(quinolin-7-yl)phenyl)-3-(((R)-1-(thiazole-2-carbonyl)pyrrolidin-3-yl)methyl)-7-oxa-1,3-diazaspiro[4.4]non-1-en-4-one]
63% | ~4.37 µM | – | – | O=C(C1CC1)N1CC(CN2C(=O)C3(CCN(C(=O)C(F)(F)F)CC3)N=C2c2ccc(-c3ccc4occc4c3)cc2)C1 [compound 764, 2-[4-(1-Benzofuran-5-yl)phenyl]-3-{[1-(cycloprropylcarbonyl)azetidin-3-yl]methyl}-8-(trifluoroacetyl)-1,3,8-triazaspiro[4.5]dec-1-en-4-one]
19% | > 10 µM | – | – | Cc1cc(-c2ccc3c(cnn3C)c2)ccc1C1=NC2(CC2)C(=O)N1CC1CN(C(=O)C2(O)CCC2)C1 [compound 796, 6-((1-(1-hydroxycyclobutanecarbonyl)azetidin-3-yl)methyl)-5-(2-methyl-4-(1-methyl-1H-indazol-5-yl)phenyl)-4,6-diazaspiro[2.4]hept-4-en-7-one]
106% | 0.398 µM | – | – | CN(C)c1cccc(-c2ccc(C3=NC4(CC4)C(=O)N3C[C@@H]3CCN(C(=O)C4CC4)C3)cc2)c1 [compound 145, 6-{[(3R)-1-(Cyclopropylcarbonyl)pyrrolidin-3-yl]methyl}-5-[3′-(dimethylamino)biphenyl-4-yl]-4,6-diazaspiro[2.4]hept-4-en-7-one]
76% | 1.66 µM | – | – | O=C(N1CCCC1)N1CC[C@@H](CN2C(=O)C3(CCOCC3)N=C2c2ccc(-c3ccc4occc4c3)cc2)C1 [compound 671, 2-[4-(1-Benzofuran-5-yl)phenyl]-3-{[(3S)-1-(pyrrolidin-1-ylcarbonyl)pyrrolidin-3-yl]methyl}-8-oxa-1,3-diazaspiro[4.5]dec-1-en-4-one]
6% | > 10 µM | – | – | Cn1ncc2cc(-c3ccc(C4=NC5(CCOC5)C(=O)N4CC4CN(C(=O)c5nccs5)C4)cc3)ccc21 (stereo not drawn) [compound 909, 2-(4-(1-methyl-1H-indazol-5-yl)phenyl)-3-((1-(thiazole-2-carbonyl)azetidin-3-yl)methyl)-7-oxa-1,3-diazaspiro[4.4]non-1-en-4-one]
96.5% | 0.603 µM | – | – | CC(C)N1CCC2(CC1)N=C(c1ccc(-c3ccc4[nH]ccc4c3)cc1)N(CC1CN(C(=O)C3CC3)C1)C2=O [compound 187, 3-{[1-(Cyclopropylcarbonyl)azetidin-3-yl]methyl}-2-[4-(1H-indol-5-yl)phenyl]-8-(1-methylethyl)-1,3,8-triazaspiro[4.5]dec-1-en-4-one]
21% | > 10 µM | – | – | COC(=O)N1CC2(C1)N=C(c1ccc(-c3ccc4c(cnn4C)c3)cc1)N(C[C@@H]1CCN(C(=O)C(F)(F)F)C1)C2=O [compound 907, (R)-methyl 6-(4-(1-methyl-1H-indazol-5-yl)phenyl)-8-oxo-7-((1-(2,2,2-trifluoroacetyl)pyrrolidin-3-yl)methyl)-2,5,7-triazaspiro[3.4]oct-5-ene-2-carboxylate]
73% | 2.04 µM | – | – | Cc1sc2ccc(-c3ccc(C4=NC5(CC5)C(=O)N4CC4CN(C(=O)C5CC5)C4)cc3F)cc2c1C [compound 434, 6-{[1-(Cyclopropylcarbonyl)azetidin-3-yl]methyl}-5-[4-(2,3-dimethyl-1-benzothiophen-5-yl)-3-fluorophenyl]-4,6-diazaspiro[2.4]hept-4-en-7-one]
29% | > 10 µM | – | – | O=C1CCc2ccc(-c3ccc(C4=NC5(CC5)C(=O)N4C[C@@H]4CCN(C(=O)C5CC5)C4)cc3)cc2N1 [compound 809, (R)-7-(4-(6-((1-(cyclopropanecarbonyl)pyrrolidin-3-yl)methyl)-7-oxo-4,6-diazaspiro[2.4]hept-4-en-5-yl)phenyl)-3,4-dihydroquinolin-2(1H)-one]
20% | > 10 µM | – | – | COC(=O)N1CC[C@@H](CN2C(=O)C3(CCOC3)N=C2c2ccc(-c3ccc(-c4cnn(C)c4)cc3)cc2)C1 (stereo partly drawn) [compound 894, (3S)-methyl 3-((2-(4′-(1-methyl-1H-pyrazol-4-yl)-[1,1′-biphenyl]-4-yl)-4-oxo-7-oxa-1,3-diazaspiro[4.4]non-1-en-3-yl)methyl)pyrrolidin-1-carboxylate]
73% | 2.88 µM | – | – | CC(O)C(=O)N1CC[C@@H](CN2C(=O)C3(CCOC3)N=C2c2ccc(-c3ccc4occc4c3)cc2)C1 (stereo partly drawn) [compound 687, 2-[4-(1-Benzofuran-5-yl)phenyl]-3-{[(3R)-1-(2-hydroxypropanoyl)pyrrolidin-3-yl]methyl}-7-oxa-1,3-diazaspiro[4.4]non-1-en-4-one]
– | – | 11% | <5 | O=C(C1CC1)N1CCC(CN2C(=O)C3(CC3)N=C2c2ccc(-c3ccc(C(F)(F)F)cc3)cc2)CC1 [compound 859, 6-((1-(cyclopropanecarbonyl)piperidin-4-yl)methyl)-5-(4′-(trifluoromethyl)-[1,1′-biphenyl]-4-yl)-4,6-diazaspiro[2.4]hept-4-en-7-one]
42% | 8.51 µM | – | – | O=C(C1CC1)N1CC(CN2C(=O)C3(CC3)N=C2c2ccc(-c3ccc4oncc4c3)cc2)C1 [compound 504, 5-[4-(1,2-Benzisoxazol-5-yl)phenyl]-6-{[1-(cyclopropylcarbonyl)azetidin-3-yl]methyl}-4,6-diazaspiro[2.4]hept-4-en-7-one]
109% | 0.138 µM | – | – | Cc1sc2ccc(-c3ccc(C4=NC5(CCN(C(=O)C(C)C)CC5)C(=O)N4C[C@@H]4CCN(C(=O)C5CC5)C4)cc3)cc2c1C [compound 183, 3-{[(3R)-1-(Cyclopropylcarbonyl)pyrrolidin-3-yl]methyl}-2-[4-(2,3-dimethyl-1-benzothiophen-5-yl)phenyl]-8-(2-methylpropanoyl)-1,3,8-triazaspiro[4.5]dec-1-en-4-one]
44% | > 10 µM | – | – | COC(=O)N1CC[C@@H](CN2C(=O)C3(CCOCC3)N=C2c2ccc(-c3ccc4occc4c3)cc2)C1 [compound 889, (S)-methyl 3-((2-(4-(benzofuran-5-yl)phenyl)-4-oxo-8-oxa-1,3-diazaspiro[4.5]dec-1-en-3-yl)methyl)pyrrolidin-1-carboxylate]
